This is an account of results in US11767305B2, “Advantageous benzofuran compositions for mental disorders or enhancement” (Tactogen Inc, priority 2020, dated 2023).

The target of one series is 5-HT1BR (Homo sapiens (Human), UniProt P28222). Description: 5-HT1BR cAMP secondary messenger agonist assay (HitHunter, CHO-K1). It is filed as cell-based. The text has this: The 5-HT1BR cAMP secondary messenger agonist assay used a panel of CHO-K1 cell lines stably expressing non-tagged GPCRs that endogenously signal through cAMP. Hit Hunter® cAMP assays monitored the activation of a GPCR via Gi and Gs secondary messenger signaling in a homogenous, non-imaging assay format using DiscoverX Enzyme Fragment Complementation (EFC) with β-galactosidase as the functional endpoint.
The enzyme was split into two complementary portions: Enzyme Acceptor (EA) and Enzyme Donor (ED). Exogenously introduced ED fused to cAMP (ED-cAMP) competed with endogenously generated cAMP for binding to an anti-cAMP-specific antibody. Active β-galactosidase was formed by complementation of exogenous EA to any unbound ED-cAMP.
Cell lines were expanded from freezer stocks according to standard procedures. Cells were seeded in a total volume of 20 μL into white walled, 384-well microplates and incubated at 37° C. for the appropriate time prior to testing. cAMP modulation was determined using the DiscoverX HitHunter cAMP XS+ assay.
For agonist determination, cells were incubated with sample (in the presence of EC80 forskolin to induce response if measuring Gi secondary messenger signaling). Media was aspirated from cells and replaced with 15 μL 2:1 HBSS/10 mM Hepes:cAMP XS+ Ab reagent. Intermediate dilution of sample stocks was performed to generate 4×sample in assay buffer (optionally containing 4×EC80 forskolin). 5 μL of 4×sample was added to cells and incubated at 37° C. or room temperature for 30 or 60 minutes, as appropriate. Final assay vehicle concentration was 1%.

In another series the target is MAO-A (Homo sapiens (Human), UniProt P21397). Description: MAO-A inhibition assay (kynuramine). Type of series: biochemical.
MAO-A, sequence (P21397 whole entry, looked up, species assumed): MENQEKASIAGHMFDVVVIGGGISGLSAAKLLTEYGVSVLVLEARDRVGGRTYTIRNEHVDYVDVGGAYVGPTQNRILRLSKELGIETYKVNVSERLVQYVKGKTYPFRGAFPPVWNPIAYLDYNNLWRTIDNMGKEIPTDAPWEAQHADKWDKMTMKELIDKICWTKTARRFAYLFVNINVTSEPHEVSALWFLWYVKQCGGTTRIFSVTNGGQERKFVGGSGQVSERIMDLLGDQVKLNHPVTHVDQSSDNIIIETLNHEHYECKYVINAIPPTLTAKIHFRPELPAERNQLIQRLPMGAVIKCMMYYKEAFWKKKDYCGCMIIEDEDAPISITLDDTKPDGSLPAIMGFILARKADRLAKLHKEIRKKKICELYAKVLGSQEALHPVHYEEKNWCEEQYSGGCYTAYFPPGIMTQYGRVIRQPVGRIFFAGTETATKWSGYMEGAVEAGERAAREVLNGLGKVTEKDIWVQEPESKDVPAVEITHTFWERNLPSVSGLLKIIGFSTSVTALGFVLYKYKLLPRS
Series [1] has as its target human 5-HT transporter (hSERT) (Homo sapiens (Human), UniProt P31645). Description: Human serotonin transporter  assay ([3H]imipramine radioligand, CHO cells). It is filed as binding. As to the method:
Benzofuran derivatives were evaluated for inhibiting the human 5-HT transporter (hSERT) as expressed in CHO cells using an antagonist radioligand assay (Tatsumi, M. et al. (1999), Eur. J Pharmacol., 368: 277-283). […] Test compounds were assayed in three trials at […], and 0.94868 μM.

Series [2] deals with T1, serotonin (5-HT) transporter (SERT) (Rattus norvegicus (Rat), UniProt P31652). Put plainly: Rat synaptosome SERT [3H]5-HT release assay. As to conditions: [3H]5-HT release via SERT EC50 (nM), 5 nM [3H]5-HT.
In a further series the target is DAT (Homo sapiens (Human), UniProt Q01959). Description: hDAT release assay in CHO cells ([3H]dopamine). The following applies: EC50 DAT (Mean ± SEM, nM), CHO cells expressing hDAT.
The next series addresses SERT (Homo sapiens (Human), UniProt P31645). Put plainly: hSERT release assay in CHO cells ([3H]serotonin). The following applies: EC50 SERT (Mean ± SEM, nM), CHO cells expressing hSERT.
The target of series [3] is T1, serotonin (5-HT) transporter (SERT). Put plainly: Rat synaptosome SERT [3H]5-HT uptake inhibition assay. As to conditions: Inhibition of [3H]5-HT Uptake at SERT IC50 (nM), 5 nM [3H]5-HT.
A further series deals with 5-HT2A receptors (Homo sapiens (Human), UniProt P28223). Description: 5-HT2A agonist and antagonist calcium assay (Calcium NWPLUS, FLIPR). Type of series: cell-based. How it is done:
The DiscoveRx Calcium NWPLUS Assay was used for detection of changes in intracellular calcium as signalled by an increase of dye fluorescence in cells expressing 5-HT2A receptors. Signal was measured on a fluorescent plate reader equipped with fluidic handling capable of detecting rapid changes in fluorescence upon compound stimulation.
To conduct the assay, cell lines were expanded from freezer stocks according to standard procedures. Cells (10,000 cells/well) were seeded in a total volume of 50 μL (200 cells/μL) into black-walled, clear-bottom, Poly-D-lysine coated 384-well microplates and incubated at 37-C for the appropriate time prior to testing. DMSO concentration for all readouts was ≤0.2%.
Assays were performed in 1×DyeLoading Buffer consisting of 1×Dye (DiscoverX, Calcium No WashPLUS kit, Catalog No. 90-0091), 1×Additive A and 2.5 mM Probenecid in HBSS/20 mM Hepes. Probenecid was prepared fresh. Cells were loaded with dye prior to testing. Media was aspirated from cells and replaced with 25 μL Dye Loading Buffer. Test compounds were assayed at 10 concentrations with the highest concentration either 30 or 10 μM and subsequent concentrations using a 0.33 dilution factor. Cells with testing sample were incubated for 45 minutes at 37° C. and then 20 minutes at room temperature. After dye loading, cells were removed from the incubator and 25 μL of 2×compound in HBSS/20 mM Hepes was added using a FLIPR Tetra (MDS). […]
Compound agonist activity was measured on a FLIPR Tetra. Calcium mobilization was monitored for 2 minutes with a 5 second baseline read. FLIPR read-Area under the curve was calculated for the two minute read. Compound activity was analyzed using CBIS data analysis suite (ChemInnovation, CA). Percentage activity was calculated as 100%×(mean RFU of test sample−mean RFU of vehicle control)/(mean MAX RFU control ligand −mean RFU of vehicle control). For antagonist mode assays, percentage inhibition was calculated as 100%×(1−(mean RFU of test sample−mean RFU of vehicle control)/(mean RFU of EC80 control−mean RFU of vehicle control)).

The target of another series is 5-HT2B (Homo sapiens (Human), UniProt P41595). Put plainly: 5-HT2B agonist and antagonist calcium assay (Calcium NWPLUS, FLIPR). Type of series: cell-based.
5-HT2B, sequence (P41595 whole entry, looked up, species assumed): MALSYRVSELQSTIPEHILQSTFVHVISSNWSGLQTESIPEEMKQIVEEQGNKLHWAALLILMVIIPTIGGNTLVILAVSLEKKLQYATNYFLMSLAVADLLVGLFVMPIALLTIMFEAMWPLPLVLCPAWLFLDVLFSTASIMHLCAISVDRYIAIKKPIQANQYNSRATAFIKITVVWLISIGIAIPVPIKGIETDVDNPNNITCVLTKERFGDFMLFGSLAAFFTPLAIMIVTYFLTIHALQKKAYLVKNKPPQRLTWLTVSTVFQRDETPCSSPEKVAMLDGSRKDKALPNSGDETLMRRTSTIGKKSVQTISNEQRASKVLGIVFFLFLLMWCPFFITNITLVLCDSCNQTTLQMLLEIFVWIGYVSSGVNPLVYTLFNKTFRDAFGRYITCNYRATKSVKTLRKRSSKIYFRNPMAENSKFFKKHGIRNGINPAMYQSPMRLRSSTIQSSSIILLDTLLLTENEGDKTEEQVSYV
Series [4] concerns the target Nicotinic Acetylcholine Receptor α4β2 (nAchRa4/b2) (Homo sapiens (Human), UniProt P17787+P43681). Description: Nicotinic acetylcholine receptor α4β2 ion channel blocking assay. Type of series: cell-based. As to the method: Cell lines were expanded from freezer stocks according to standard procedures. Cells were seeded in a total volume of 20 μL into black-walled, clear-bottom, Poly-D-lysine coated 384-well microplates and incubated at 37° C. for the appropriate time prior to testing.
Assays were performed in 1×Dye Loading Buffer consisting of 1×Dye, and 2.5 mM freshly-prepared Probenecid when applicable.
Test compounds were assayed at 10 concentrations with the highest concentration either 30 or 10 μM and subsequent concentrations using a 0.33 dilution factor.
Prior to testing, cells were loaded with dye then incubated for 30-60 minutes at 37° C. For antagonist determination, cells were pre-incubated with sample. Dihydro-β-erythroidine was used as a positive control. Intermediate dilution of sample stocks was performed to generate 2-5×sample in assay buffer.
After dye loading, cells were moved from the incubator and 10-25 μL 2-5×sample was added to cells in the presence of EC80 agonist when appropriate. Cells were incubated for 30 minutes at room temperature in the dark to equilibrate plate temperature. Vehicle concentration was 1%.
Compound activity was measured on a FLIPRTetra(MDS) and analyzed using CBIS data analysis suite (ChemInnovation, CA). Percentage inhibition was calculated using the following formula: % Inhibition=100%×(1−(mean RLU of test sample−mean RLU of vehicle control)/(mean RLU of EC80 control−mean RLU of vehicle control)).

In the next series the test system is healthy human individual. Put plainly: Human effects of non-racemic 5-MAPB, self-reported ratings (Good, Bad, Open). It is filed as in vivo. The following applies: averaged from all sessions, 54 mg 5-MAPB HCl oral in two halves. As to the method: The effects of non-racemic 5-MAPB HCl were tested by a healthy human individual at four different ratios of enantiomers plus the racemate as a control: • 54 mg S and 0 mg R (100% S) • 47 mg Sand 7 mg R (87% S) • 36 mg S and 18 mg R (67% S) • 27 mg S and 27 mg R (50% S) • 7 mg S and 47 mg R (13% S)
Two trials were carried out at each ratio, except for 13% S where only one was conducted. Trials were at least 72 h apart.
5-MAPB HCl was dissolved in 1.5 ml distilled water and consumed in two halves, separated by 1 hour. Starting at 3 hours after administration, tablets of 250 mg ascorbic acid and capsules of 300 mg alpha lipoic acid were taken ad libitum (approximately every hour for a total of 4 administrations).
Measurements were made approximately every 2 hours until post 6 hours and the maximum ratings per session were analyzed. Additionally, an index of good drug effects versus emotional openness, calculated as (Open−Good)/(200, the theoretical maximum of Open+Good), was constructed at each time point and the maximum analyzed. In healthy volunteers, Good Ratings can be considered a predictor of abuse liability. Accordingly, this index can be used as an indicator of the balance of a therapeutic effect (emotional openness) vs abuse liability.
Historic data of two trials 50 mg RS-5-MAPB Cl from the same individual were also included in the analysis for comparison.

Series [5] is described as follows: Solubility assessment in FaSSIF V2 media. As to conditions: room temp, scale up samples of racemic 5-MAPB salts.
[6] abbreviates: SERT IC50 (μM), 2 nM [3H]imipramine.
[7] abbreviates: IC50 (appeared close to), lowest concentration too high for accurate estimate.

Nicotinic Acetylcholine Receptor α4β2 (nAchRa4/b2), sequence (P43681 29-627 limits assumed): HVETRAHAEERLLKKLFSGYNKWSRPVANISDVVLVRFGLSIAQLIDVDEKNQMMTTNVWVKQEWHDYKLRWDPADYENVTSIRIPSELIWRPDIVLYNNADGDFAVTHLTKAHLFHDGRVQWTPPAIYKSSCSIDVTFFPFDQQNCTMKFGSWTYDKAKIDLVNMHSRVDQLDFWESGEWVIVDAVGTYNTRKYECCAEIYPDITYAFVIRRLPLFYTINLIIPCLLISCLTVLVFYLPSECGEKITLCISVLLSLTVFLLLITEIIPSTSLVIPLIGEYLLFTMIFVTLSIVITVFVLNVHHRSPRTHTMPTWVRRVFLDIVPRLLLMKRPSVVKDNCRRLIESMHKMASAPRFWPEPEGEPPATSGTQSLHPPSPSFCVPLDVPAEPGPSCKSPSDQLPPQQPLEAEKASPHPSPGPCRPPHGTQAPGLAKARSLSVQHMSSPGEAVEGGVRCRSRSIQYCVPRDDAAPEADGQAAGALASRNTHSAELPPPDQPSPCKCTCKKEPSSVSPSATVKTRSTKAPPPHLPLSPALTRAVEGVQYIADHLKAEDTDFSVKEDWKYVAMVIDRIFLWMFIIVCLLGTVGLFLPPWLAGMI
Nicotinic Acetylcholine Receptor α4β2 (nAchRa4/b2), sequence (P17787 26-502 limits assumed): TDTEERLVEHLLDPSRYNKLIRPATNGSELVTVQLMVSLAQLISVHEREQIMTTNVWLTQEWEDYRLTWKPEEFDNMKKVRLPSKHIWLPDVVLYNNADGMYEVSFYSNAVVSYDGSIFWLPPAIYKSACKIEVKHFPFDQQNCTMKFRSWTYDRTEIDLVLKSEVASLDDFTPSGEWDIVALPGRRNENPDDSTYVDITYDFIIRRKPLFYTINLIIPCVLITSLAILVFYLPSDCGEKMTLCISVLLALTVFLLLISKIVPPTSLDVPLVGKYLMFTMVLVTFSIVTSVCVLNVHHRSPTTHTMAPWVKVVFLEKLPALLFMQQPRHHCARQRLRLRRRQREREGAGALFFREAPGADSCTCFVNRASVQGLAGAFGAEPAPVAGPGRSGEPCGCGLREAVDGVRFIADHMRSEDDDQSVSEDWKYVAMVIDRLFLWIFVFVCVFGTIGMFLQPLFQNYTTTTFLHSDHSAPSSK
Method for MAO-A: MAO-A and test compounds were preincubated at 37° C. for 15 minutes before substrate addition. Test compounds were assayed at 10 concentrations with the highest concentration either 30 or 10 μM and subsequent concentrations using a 0.33 dilution factor. The reaction was initiated by addition of kynuramine and incubated at 37° C. for 30 minutes. The reaction was terminated by addition of NaOH. The amount of 4-hydroquioline formed was determined through spectrofluorimetric readout with the emission detection at 380 nm and excitation wavelength 310 nm.

As a reminder, the EC50 is the concentration needed to bring the measured effect to its halfway point. One may read the IC50 as the concentration needed to halve the response being measured. Take `CN[C@@H](C)Cc1ccc2occc2c1` [Compound S-5-MAPB, (S)-1-(benzofuran-5-yl)-N-methylpropan-2-amine]: the “Hill Coef.” value on 5-HT1BR stood at 1.08. Besides, the concentration giving a half-maximal response (EC50) came out at 0.161 µM at 5-HT1BR (5-HT1BR EC50 (μM)); 0.16 µM on 5-HT1BR (5HT1B Agonist (μM)); 13 ± 1.2 nM in [2]; 258 ± 99 nM on DAT; 67 ± 15 nM at SERT. The figures for the IC50 (at MAO-A; in [1] (setting [6]); in series [3]) were 1.29 µM, 3.4 µM and 60.4 ± 2.8 nM, respectively.
In the case of `CN[C@H](C)Cc1ccc2occc2c1` [75% R-5-MAPB], the figures for the concentration giving a half-maximal response (EC50) at DAT and at SERT were 794 ± 182 nM and 122 ± 13 nM, respectively.
Consider `CN[C@H](C)Cc1ccc2occc2c1` [Compound R-5-MAPB, (R)-1-(benzofuran-5-yl)-N-methylpropan-2-amine], for which the “Hill Coef.” value at 5-HT1BR stood at 1.13. In addition, the EC50 at 5-HT1BR (5-HT1BR EC50 (μM)) came to 0.981 µM; on 5-HT1BR (5HT1B Agonist (μM)) it was 0.98 µM; at 5-HT2A receptors, 2.4 µM; in series [2], 29.3 ± 3.7 nM; on DAT, 1950 ± 401 nM; at SERT it was 184 ± 3 nM. Besides, the IC50 at 5-HT2A receptors is 5.34 µM; on 5-HT2B, 0.36 µM; at MAO-A it was 3.94 µM; in [4], 4.24 µM; in series [1] (setting [6]), 2.7 µM; in series [3], 150 ± 8.6 nM.
For the molecule `CN[C@@H](C)Cc1ccc2ccoc2c1` [Compound S-6-MAPB, (S)-1-(benzofuran-6-yl)-N-methylpropan-2-amine], the “Hill Coef.” value at 5-HT1BR came to 1.21. Further, the EC50 was 0.102 µM at 5-HT1BR (5-HT1BR EC50 (μM)), 0.1 µM at 5-HT1BR (5HT1B Agonist (μM)) and 20.6 ± 2.7 nM in series [2]. Besides, the figures for the IC50 (against MAO-A; in [1] (setting [6]); in series [3]) were 5.39 µM, 6.7 µM and 90.9 ± 5.9 nM, respectively.
In the series with healthy human individual (maximum 0-100 rating of bad drug effects), `CN[C@@H](C)Cc1ccc2occc2c1` [100% S-5-MAPB] came in with a Bad of 1%. The same molecule displayed an Open in the series on healthy human individual (maximum 0-100 rating of emotional openness) of 65%. For the same molecule, the Good in the series on healthy human individual (maximum 0-100 rating of good drug effects) stood at 55%.
For `CC[C@H](Cc1ccc2occc2c1)NC` (stereo in doubt) [Compound R-5-MBPB, 1-(benzofuran-5-yl)-N-methylbutan-2-amine], the IC50 in series [4] was 6.33 µM; in [1] (setting [7]) it was approximately 0.949 µM; in [3] it was 212 ± 36.2 nM. The molecule further yielded a concentration giving a half-maximal response (EC50) in series [2] of 49.5 ± 27.1 nM.
For the molecule `CN[C@@H](C)Cc1ccc2occc2c1` [75% S-5-MAPB], the results for the EC50 on DAT and on SERT were 632 ± 113 nM and 80 ± 7 nM, respectively.
A word on the Solubility: it is how much of the substance goes into solution per volume. `CNC(C)Cc1ccc2occc2c1.Cl` (stereo not drawn) [Pattern 1A, 5-MAPB hydrochloride]: the Solubility in [5] is more than 10000 µg/mL.
Consider `CC[C@@H](Cc1ccc2occc2c1)NC` (stereo in doubt) [Compound S-5-MBPB, 1-(benzofuran-5-yl)-N-methylbutan-2-amine], for which the IC50 against MAO-A was 2.66 µM; in series [4], 9.98 µM; in [1] (setting [7]) it was approximately 0.0949 µM; in series [3], 124 ± 35.8 nM. In [2], this molecule yielded a half-maximal effective concentration (EC50) of 31.2 ± 14.3 nM.
On to `Br.CNC(C)Cc1ccc2occc2c1` (stereo not drawn) [Pattern 2B], for which the Solubility in series [5] is more than 10000 µg/mL.
Still for that read-out and setting: as for `CNC(C)Cc1ccc2occc2c1.O=C(O)/C=C\C(=O)O` (stereo not drawn) [Pattern 10A], the figure is more than 10000 µg/mL.
